Assay results taken from publication PMC9664868, “Dephospho-Coenzyme A Kinase Is an Exploitable Drug Target against Plasmodium falciparum: Identification of Selective Inhibitors by High-Throughput Screening of a Large Chemical Compound Library” (Antimicrobial Agents and Chemotherapy, 2022).
Where two headings read alike, the source gives them in different places. Blank lines part the entries; values can stand above or below the molecule they belong to.

Columns and labels:
PfDPCK [1] = target: T1, PfDPCK (Plasmodium falciparum, UniProt Q8IL34); experiment: Kinetic analysis of recombinant PfDPCK (ADP Hunter Plus); assay type: biochemical
Experimental: (§1) PfDPCK and HsCOASY activity was measured by quantifying ADP produced in the reaction by a coupling assay using the ADP Hunter Plus assay kit (DiscoverX, USA) according to the manufacturer's instructions. Briefly, enzymatic reactions were carried out in a 20-μL mixture of assay buffer containing 15 mM HEPES, 20 mM NaCl, 1 mM EGTA, 0.02% Tween 20, 10 mM MgCl2, 0.1% bovine gamma globulin, 50 ng of recombinant PfDPCK or HsCOASY, 4 to 256 μM dephospho-CoA, and 5 to 300 μM ATP on a black microplate. All reactions were performed for 2 h, reagents A and B were added, and they were then reincubated for 60 min at 30°C. After reactions were terminated by addition of ADP Hunter Stop solution, the fluorescent signal was measured using SpectraMax Paradigm (Molecular Devices, CA, USA) at excitation and emission wavelengths of 530 and 590 nm, respectively. The kinetic parameters were calculated using the nonlinear regression function using the single saturating concentrations of the substrates by the GraphPad Prism software (GraphPad Software Inc., San Diego, CA). The experiments were repeated three times in triplicate using proteins purified from independent cultures. Kinetic values of enzymes are presented as the means ± standard errors (SEs).

HsCOASY = target: T2, HsCOASY (Homo sapiens, UniProt Q13057); experiment: Kinetic analysis of recombinant HsCOASY (ADP Hunter Plus); assay type: biochemical; conditions: substrate of HsCOASY
T2 construct: His tag (pCold1 vector); made in house; host or cells: Escherichia coli BL21Star (DE3)
T2 sequence (Q13057 1-564): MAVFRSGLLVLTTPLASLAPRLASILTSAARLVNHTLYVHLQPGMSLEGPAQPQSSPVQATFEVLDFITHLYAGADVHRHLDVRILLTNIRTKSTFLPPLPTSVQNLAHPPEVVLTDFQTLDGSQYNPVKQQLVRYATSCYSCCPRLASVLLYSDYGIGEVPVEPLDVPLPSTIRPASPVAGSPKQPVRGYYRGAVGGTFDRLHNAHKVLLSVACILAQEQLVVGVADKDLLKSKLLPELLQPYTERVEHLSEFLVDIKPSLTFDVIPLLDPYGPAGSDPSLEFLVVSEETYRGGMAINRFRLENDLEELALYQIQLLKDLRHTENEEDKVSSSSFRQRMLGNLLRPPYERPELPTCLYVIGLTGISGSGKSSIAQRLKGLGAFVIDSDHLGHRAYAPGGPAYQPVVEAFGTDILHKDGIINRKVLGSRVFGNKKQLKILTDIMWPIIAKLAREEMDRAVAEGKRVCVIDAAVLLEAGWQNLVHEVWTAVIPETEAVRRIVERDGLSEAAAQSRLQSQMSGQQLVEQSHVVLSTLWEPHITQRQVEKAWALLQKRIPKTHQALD
Experimental: as §1

PfDPCK [2] = target: T1, PfDPCK; experiment: PfDPCK inhibition, enzyme-coupled fluorescence ADP detection assay (HTS and IC50 determination); assay type: biochemical
Experimental: High-throughput screening against recombinant PfDPCK was performed using the Drug Discovery Initiative (DDI) full library, available from The University of Tokyo, composed of approximately 210,000 compounds. The primary assay was performed on 1,536-well white plate format with a final volume of 2 μL/well, containing 10 μM test compounds using a Multidrop Combi reagent dispenser (Thermo Fisher Scientific, Waltham, MA). The reaction was conducted in the assay buffer described above with 100 μM ATP and 50 μM dephospho-CoA. The assay was carried out at room temperature for 4 h in a closed plastic container with wet tissues. The reaction was stopped, and produced ADP was quantified using an enzyme-coupled fluorescence ADP detection assay, using PHERAstar microplate reader (BMG Labtech, Offenburg, Germany) with excitation at 540 nm and emission at 590 nm, as previously described ([17]). The inhibition level was calculated as the percentage inhibition of DPCK activity with each compound compared to the activity with only dimethyl sulfoxide (DMSO) as control (no inhibition) and that with no enzyme as 100% inhibition. IC50 values of the hit compounds were determined under the same assay conditions for the screening: Z′ factor, signal-to-background ratio (S/B), signal-to-noise ratio (S/N), and coefficient of variation (CV) were calculated to estimate the quality of screening system as previously described ([18], [38]).
The primary hits were reassayed in quadruplicate (n = 4) as in the primary screening. We next tested the confirmed secondary hits to exclude false positives that inhibit coupled fluorescence assay, but not PfDPCK. After exclusion of false positives, all tertiary hits were tested against human HsCOASY in the counterassay to exclude compounds that inhibit both PfDPCK and HsCOASY. The compounds showing >10% inhibition against HsCOASY were excluded from further studies. The IC50 values of the hit compounds were determined under the same assay conditions described as above for the primary screening, with the serially diluted compounds at 20, 10, 2.5, 0.5, and 0.1 μM at final concentrations. The assay was conducted in quadruplicate for each dilution, and IC50 values were calculated using GraphPad Software (San Diego, California USA).

[3] = tested on: P. falciparum drug-sensitive 3D7 strain; experiment: Erythrocytic-stage parasite growth inhibition, diaphorase-coupled LDH assay, 3D7; assay type: cell-based, Plasmodium falciparum
Experimental: (§2) Selected hit compounds were also tested against erythrocytic-stage parasites of P. falciparum drug-sensitive 3D7 and drug-resistant Dd2 strains ([39]). For the phenotypic assay, parasite cultures were synchronized with 5% (wt/vol) D-sorbitol as previously described ([40]). A synchronized culture containing ring-stage parasites of 0.3% parasitemia was initiated with a culture volume of 25 μL/well on a 384-well plate. A series of diluted compounds (at final concentrations of 50, 10, 2, 0.4, and 0.08 μM) were used to calculate IC50 values. Mefloquine at 50 μM and atovaquone at 20 μM were used as no-growth control (100% inhibition). After 72 h of incubation, parasite growth was measured by diaphorase-coupled lactate dehydrogenase (LDH) assay as previously described ([41]). Absorbance at 650 nm was measured using SpectraMax Paradigm multimode microplate reader (Molecular Devices, San Jose, CA, USA). The IC50 values were calculated as described above.

[4] = tested on: P. falciparum drug-resistant Dd2 strain; experiment: Erythrocytic-stage parasite growth inhibition, diaphorase-coupled LDH assay, Dd2; assay type: cell-based, Plasmodium falciparum; conditions: for IC50: Plasmodium falciparum
Experimental: as §2

HepG2 cell line = experiment: Cytotoxicity assay (Cell Counting Kit-8); assay type: cell-based, human; conditions: Homo sapiens, HepG2, read-out: IC50 (μM) of: HepG2
Experimental: Cytotoxicity against human cells was evaluated using the human liver carcinoma HepG2 cell line. HepG2 cells were cultured in D-MED supplemented with 4 mM L-glutamine and 10% fetal bovine serum (FBS) in a 75-cm^2 flask (Violamo) at 37°C. For the cytotoxicity assay, HepG2 cells in semiconfluent state were detached from the flask by incubating the cells with 5 mL D-MEM containing 0.25% trypsin-EDTA. After detachment, HepG2 cells were resuspended in D-MEM-supplemented L-glutamine and FBS, and cell viability was evaluated by incubating cells with 0.4% Trypan blue on a hemocytometer. An approximately 50-μL suspension containing 3,000 cells was dispensed into each well on a 384-well clear-bottom plate using a Multidrop Combi dispenser. Compounds dissolved in DMSO had been dispensed into wells to yield final concentrations of 100, 20, 4, 0.8, and 0.2 μM before cells were added. After cells were added to the plates, they were cultured at 37°C under 5% CO2. After 48 h cultivation, 5 μL of Cell Counting Kit-8 (Dojindo, Japan) was added, and the plates were further incubated for 2 h to assess cell growth and survival.

PfDPCK [5] = target: T1, PfDPCK; experiment: Mechanism of PfDPCK inhibition by Lineweaver-Burk plot; assay type: biochemical
Experimental: In order to understand the mechanism of PfDPCK inhibition of the identified compounds, we independently selected compounds from 359 PfDPCK-specific inhibitor candidates (showing >40% inhibition at 10 μM against PfDPCK), based on the more stringent criteria of >80% inhibition at 10 μM against PfDPCK and <10% inhibition against HsCOASY, to yield 30 hits. The hits were prioritized using a multiparameter optimization (MPO) scoring model, developed by MMV (https://www.optibrium.com/downloads/scoring-profiles/mmv-antimalarial-scoring-profile/) based on calculated physicochemical properties, including molecular weight, logP, hydrogen bond donors and acceptors, rotatable bonds, and structural alerts ([20], [21]). We finally chose six representative compounds (A-15, A-33, and A-69, shown in Table S1, and other three compounds; A-126, A-127, and A-128) by manual inspection with “chemist eye” for chemical attractiveness (druglikeness). […] Furthermore, two compounds, A-33 and A-69, are considered to be pan-assay interference compounds (PAINS) (phenolic Mannich base) ([22]). We consequently focused on two commercially available compounds (A-15 and A-127) (Fig. 6A) and investigated their mechanism of inhibition. We differentiated the type of inhibition by Lineweaver-Burk plot with various concentrations of one substrate (dephospho-CoA or ATP), while the other substrate was given in saturating concentrations in kinetic studies (Fig. 5).
FIG 5 Lineweaver-Burk plots showing inhibition of two compounds, compound A-15 (A, B) and compound A-127 (C, D) on the PfDPCK activity. The enzymatic activities were determined with various concentrations of dephospho-CoA and 200 μM ATP (A, C) or various concentrations of ATP and 200 μM dephospho-CoA (B, D) in the presence of a range of concentrations of inhibitors. Data are shown in means ± SEMs of triplicate.
as §1

[6] = substrate: CC(C)(COP(=O)(O)OP(=O)(O)OCC1OC(n2cnc3c(N)ncnc32)C(O)C1O)C(O)C(=O)NCCC(=O)NCCS; experiment: Kinetic analysis of recombinant PfDPCK (ADP Hunter Plus); assay type: biochemical, Plasmodium falciparum; conditions: other: substrate of PfDPCK; 30.0 °C
Experimental: as §1

[7] = substrate: CC(C)(COP(=O)(O)OP(=O)(O)OCC1OC(n2cnc3c(N)ncnc32)C(O)C1O)C(O)C(=O)NCCC(=O)NCCS; experiment: Kinetic analysis of recombinant HsCOASY (ADP Hunter Plus); assay type: biochemical, human; conditions: other: substrate of HsCOASY; 30.0 °C
Experimental: as §1

[8] = recombinant enzyme, means ± SEMs, read-out: IC50 (μM) of: PfDPCK
[9] = Plasmodium falciparum, drug-sensitive 3D7, 72 h, means ± SEMs, read-out: IC50 (μM) of: Pf cell 3D7
[10] = drug-resistant Dd2, 72 h, means ± SEMs, read-out: IC50 (μM) of: Pf cell Dd2

Molecule: Nc1ncnc2c1ncn2[C@@H]1O[C@H](COP(=O)(O)OP(=O)(O)OP(=O)(O)O)[C@@H](O)[C@H]1O [ATP]
- Km (PfDPCK [1]; substrate of PfDPCK): 88.1 ± 11 µM
- Km (HsCOASY): 115 ± 13.1 µM

- IC50 (PfDPCK [2]; [8]): 8.69 ± 0.01 µM
- IC50 [3, 9]: 6.04 ± 0.05 µM
- IC50 [4, 10]: 0.7 ± 0.22 µM
Molecule: O=Cc1cc(C23CC4CC(CC(C4)C2)C3)cc([N+](=O)[O-])c1O [Compound A-63]
- Selectivity index IC50 (HepG2/3D7) ([3]; HepG2 IC50 / 3D7 IC50): >16.6
- Selectivity index IC50 (HepG2/Dd2) ([4]; HepG2 IC50 / Dd2 IC50): >142.8
- IC50 (HepG2 cell line; 48 h, means ± SEMs): > 100 µM

- IC50 (PfDPCK [2]; [8]): 9.21 ± 0.12 µM
- IC50 [3, 9]: 4.4 ± 0.05 µM
- IC50 [4, 10]: 0.36 ± 0.1 µM
Molecule: S=C(NCCc1ccccc1)NNc1nc2ccccc2[nH]1 [Compound A-65]
- IC50 (HepG2 cell line; ND (maximum concentration tested 100 μM)): > 100 µM

- IC50 (PfDPCK [2]; Table S1, means ± SEM, read-out: IC50 (μM) Pf DPCK): 5.01 ± 0.46 µM
- IC50 ([3]; Plasmodium falciparum, 3D7, Table S1, means ± SEM, read-out: IC50 (μM) Pf cell 3D7): < 2 µM
- IC50 ([4]; DD2, Table S1, means ± SEM, read-out: IC50 (μM) Pf cell Dd2): < 10 µM
- Ki (PfDPCK [5]; in respect of ATP, 200 μM dephospho-CoA): 8.99 µM
- Ki (PfDPCK [5]; in respect of dephospho-CoA, 200 μM ATP): 14.9 µM
Molecule: COc1cc(N2CCCC2)cc2ccc(-c3ccccn3)nc12 [Compound A-127]
- inhibition at 2 µM ([3]; Plasmodium falciparum, 3D7, at 2 μM, read-out: growth inhibition against 3D7): 80%
- type of inhibition (PfDPCK [5]; in respect of dephospho-CoA and ATP, Lineweaver-Burk plot): uncompetitive or noncompetitive inhibition

Molecule: CC(C)(CO)[C@@H](O)C(=O)NCCC(=O)O [pantothenate]
- specific activity (PfDPCK [1]; as a substrate of PfDPCK): < 0.01 µmol/min/mg

B1: PfDPCK (Plasmodium falciparum 3D7) (protein)
chain: MFLKFFLDKCILCFLALGSIPIGYINRKNKFRKIENQKYALFSSIVMNSFLIYLNKFFGILGIFNFFLGNYLCLIGITGGIAVGKSTFCNFLKKKDVVVINADEITSKIYTKDSICYKKIVKHFGENILNNDKSINRTLLRKIVFNNEENVKYINKITHTYIILQIIKECLKYKFLYFKYNVAIEAPLLIETKLYLLTSPVILLKSSVRNQIKRILSRDKNCTYDTAMGIIKNQLPTDEKIKYADIIINNDGDILDLQMKCDVVYNKYLKNFFF
- Km [6]: 105.3 ± 10.2 µM

B2: HsCOASY (Homo sapiens) (protein)
chain: T2 sequence (Q13057 1-564)
notes: His tag (pCold1 vector); made in house; host or cells: Escherichia coli BL21Star (DE3)
- Km [7]: 85.35 ± 13.4 µM
